# According to patent US6153756A, “Soluble prodrugs of paclitaxel” (priority 1997, dated 2000):
# Where “and” joins values, the source holds several entries; their conditions need not be identical. Equal entries are not always repeated. Structures can show the parent of a compound that is named as a salt. Where two headings read alike, the source gives them in different places.
# How the values were obtained:
# [1] = tested on: neoplasms including breast; conditions: several types of neoplasms including breast; cited from earlier work
# [2] = Solubility of 2'-MPM in deionized water; type: physicochemical
# Experimental: Solubility: Deionized water (0.5 ml) was added to three samples of the 2'-MPM (1.54 mg, 0.97 mg and 0.80 mg) and the flask sonicated for approximately one (1) minute.
# [3] = Extraction of 2'-MPM from water into CH2Cl2; type: physicochemical; conditions: three samples (1.2, 1.0, 0.98 mg) in water (1 ml) stirred with CH2Cl2 (1 ml)
# Experimental: Extraction: Three samples (1.2,1.0 and 0.98 mg) were dissolved in water (1 ml) and vigorously stirred with CH2 Cl2 (1 ml). The organic phase was transferred to a clean, tared vial and concentrated in vacuo. The residue was weighed and compared to the theoretical input to gauge the effectiveness of the extraction procedure. Average return for this extraction was about 44% of theoretical.
# [4] = Aqueous stability of 2'-MPM in H2O and 0.2M NaCl; type: physicochemical
# Experimental: Aqueous Stability: The stability of the prodrug in H2 O and 0.2M NaCl was examined at both room temperature and under refrigerated conditions. Samples in H2 O (0.54 mg in 2 ml) and NaCl (0.57 mg in 2 ml) at room temperature were examined at two minute time intervals (0 through 12 minutes), 2 hours and 24 hours. […] At 4° C. the product concentration was unchanged at 24 and 48 hours but decreased to 90% after 72 hours. […] At 4° C. the product concentration was unchanged at 24 hours, was 91% at 48 hours and was 88% at 72 hours.
# [5] = Water solubility of paclitaxel and of its prodrugs (general statements); type: physicochemical; conditions: listed advantage of the novel salts
# [6] = Stability of 2'-MPA after HPLC purification in presence of excess acetate; type: physicochemical; conditions: excess acetate ion, upon concentration of HPLC effluent, to paclitaxel
# [7] = Stability of paclitaxel 2'-methylpyridinium acetate (HPLC); type: physicochemical
# Experimental: The onium salt paclitaxel-2'-MPA was prepared by the method of Nicolaou et al., Angew. Chim. Int. Engl., 33:1583-1587 ([…]). A 2.40 mg/ml solution of the paclitaxel-2'-MPA was prepared by dissolving the salt (10.2 mg) in a solution of water (3.024 ml) and polyethylene glycol (1.234 ml). Samples of this solution were frozen. The frozen samples were slowly warmed to room temperature and homogenized with CH3 CN (50 μl). An aliquot (50 μl) was removed and diluted to a final volume of 200 μl with deionized H2 O and analyzed via HPLC (20 μl injection).
# Analysis conditions were as follows: […]
# Mobile phase: 50% MeOH/80 mM NH4 OAc
# [8] = freshly prepared solution, 0.53 mg/ml in CH3CN
smiles,measurement,setting,value
"CC(=O)O[C@H]1C(=O)[C@@]2(C)[C@H]([C@H](OC(=O)c3ccccc3)[C@]3(O)C[C@H](OC(=O)[C@H](O)[C@@H](NC(=O)c4ccccc4)c4ccccc4)C(C)=C1C3(C)C)[C@]1(OC(C)=O)CO[C@@H]1C[C@@H]2O [Paclitaxel, paclitaxel]",effectiveness in chemotherapy,[1],effective for chemotherapy for several types of neoplasms including breast
"CC(=O)O[C@H]1C(=O)[C@@]2(C)[C@H]([C@H](OC(=O)c3ccccc3)[C@]3(O)C[C@H](OC(=O)[C@H](Oc4cccc[n+]4C)[C@@H](NC(=O)c4ccccc4)c4ccccc4)C(C)=C1C3(C)C)[C@]1(OC(C)=O)CO[C@@H]1C[C@@H]2O [2'-MPM, Paclitaxel-2'-Methylpyridinium Mesylate]",upper limit of solubility,[2]; deionized water,has not been attained as yet
same,Solubility: sample amount for which solution was attained,"[2]; deionized water 0.5 ml, sonicated approx. 1 min",0.97 mg and 0.80 mg
same,Solubility: additional water required to provide a free-flowing solution,"[2]; largest sample (1.54 mg), on top of 0.5 ml deionized water",0.1 mL
same,Average return for extraction into CH2Cl2,[3],about 44 % of theoretical
same,product concentration,"[4]; 0.2M NaCl, 4° C., 24 hours",unchanged
same,remaining at 48 h,"[4]; 0.2M NaCl, 4° C., 48 hours, read-out: product concentration",91%
same,remaining at 72 h,"[4]; 0.2M NaCl, 4° C., read-out: product concentration",88%
same,degraded at 2 h,"[4]; 0.2M NaCl, room temperature, 2 hours, read-out: drop in product concentration",1 to 2%
same,remaining at 24 h,"[4]; 0.2M NaCl, room temperature, 24 hours, read-out: product concentration",70%
same,Aqueous stability,"[4]; 0.2M NaCl, room temperature, first ten minutes",no apparent change
same,remaining at 72 h,"[4]; H2O, 4° C., read-out: product concentration",90%
same,Aqueous stability,"[4]; H2O, room temperature, 2 hours",relatively unchanged
same,remaining at 24 h,"[4]; H2O, room temperature, 24 hours, read-out: product concentration",56%
same,stability compared with 2'-MPA salt,"[4]; aqueous solution, 4° C.",significantly more stable than the 2'-MPA salt
same,MPM salt remaining (summary statement),"[4]; aqueous solution, 4° C., 24 hours",unchanged
same,remaining at 72 h,"[4]; water, aqueous solution, 4° C., read-out: MPM salt remaining (summary statement)",88 to 91%
same,solubility compared with paclitaxel,[5],much higher than for paclitaxel
"CC(=O)O[C@H]1C(=O)[C@@]2(C)[C@H]([C@H](OC(=O)c3ccccc3)[C@]3(O)C[C@H](OC(=O)[C@H](Oc4cccc[n+]4C)[C@@H](NC(=O)c4ccccc4)c4ccccc4)C(C)=C1C3(C)C)[C@]1(OC(C)=O)CO[C@@H]1C[C@@H]2O [2'-MPA, Paclitaxel 2'-Methylpyridinium Acetate]",stability on HPLC purification,[6],decomposes rapidly
same,Paclita. % (paclitaxel in 2'-MPA sample),"[7]; 4° C., 1 Hour",15%
same,Unkno. % (unknown in 2'-MPA sample),"[7]; 4° C., 1 Hour",No peak eluted
same,Paclita. % (paclitaxel in 2'-MPA sample),"[7]; 4° C., 2 Weeks",9%
same,Unkno. % (unknown in 2'-MPA sample),"[7]; 4° C., 2 Weeks",10%
same,Paclita. % (paclitaxel in 2'-MPA sample),"[7]; 4° C., 6 Hours",11%
same,Unkno. % (unknown in 2'-MPA sample),"[7]; 4° C., 6 Hours",14%
same,Paclita. % (paclitaxel in 2'-MPA sample),"[7]; 4° C., 18 Hours",10%
same,Unkno. % (unknown in 2'-MPA sample),"[7]; 4° C., 18 Hours",17%
same,Paclita. % (paclitaxel in 2'-MPA sample),"[7]; 4° C., 42 Hours",9%
same,Unkno. % (unknown in 2'-MPA sample),"[7]; 4° C., 42 Hours",12%
same,Paclita. % (paclitaxel in 2'-MPA sample),"[7]; 4° C., 66 Hours",11%
same,Unkno. % (unknown in 2'-MPA sample),"[7]; 4° C., 66 Hours",16%
same,Paclita. % (paclitaxel in 2'-MPA sample),"[7]; Room Temperature, 1 Hour",14%
same,Unkno. % (unknown in 2'-MPA sample),"[7]; Room Temperature, 1 Hour",8%
same,Paclita. % (paclitaxel in 2'-MPA sample),"[7]; Room Temperature, 6 Hours",14%
same,Unkno. % (unknown in 2'-MPA sample),"[7]; Room Temperature, 6 Hours",8%
same,Paclita. % (paclitaxel in 2'-MPA sample),"[7]; Room Temperature, 42 Hours",17%
same,Unkno. % (unknown in 2'-MPA sample),"[7]; Room Temperature, 42 Hours",10%
same,Paclita. % (paclitaxel in 2'-MPA sample),"[7]; Room Temperature, 66 Hours",13%
same,Unkno. % (unknown in 2'-MPA sample),"[7]; Room Temperature, 66 Hours",8%
same,Paclita. % (paclitaxel in 2'-MPA sample),"[7]; Room Temperature, 90 Hours",15%
same,Unkno. % (unknown in 2'-MPA sample),"[7]; Room Temperature, 90 Hours",12%
same,2'-MPA peak,[7]; [8],75%
same,Paclitaxel peak in 2'-MPA sample,[7]; [8],15%
same,Unknown peak in 2'-MPA sample,[7]; [8],10%
same,remaining at 1 h,"[7]; water/polyethylene glycol, 4° C., 1 Hour, read-out: 2'-MPA %",85%
same,remaining at 336 h,"[7]; water/polyethylene glycol, 4° C., 2 Weeks, read-out: 2'-MPA %",79%
same,remaining at 6 h,"[7]; water/polyethylene glycol, 4° C., 6 Hours, read-out: 2'-MPA %",75%
same,remaining at 18 h,"[7]; water/polyethylene glycol, 4° C., 18 Hours, read-out: 2'-MPA %",73%
same,remaining at 42 h,"[7]; water/polyethylene glycol, 4° C., 42 Hours, read-out: 2'-MPA %",79%
same,remaining at 66 h,"[7]; water/polyethylene glycol, 4° C., 66 Hours, read-out: 2'-MPA %",73%
same,remaining at 1 h,"[7]; water/polyethylene glycol, Room Temperature, 1 Hour, read-out: 2'-MPA %",78%
same,remaining at 6 h,"[7]; water/polyethylene glycol, Room Temperature, 6 Hours, read-out: 2'-MPA %",78%
same,remaining at 18 h,"[7]; water/polyethylene glycol, Room Temperature, 18 Hours, peaks of paclitaxel and unknown coeluted, read-out: 2'-MPA %",69%
same,remaining at 42 h,"[7]; water/polyethylene glycol, Room Temperature, 42 Hours, read-out: 2'-MPA %",73%
same,remaining at 66 h,"[7]; water/polyethylene glycol, Room Temperature, 66 Hours, read-out: 2'-MPA %",79%
same,remaining at 90 h,"[7]; water/polyethylene glycol, Room Temperature, 90 Hours, read-out: 2'-MPA %",73%
